Experimental data as given in patent US5712160A, “Method of stimulating growth using neurotrophic peptides” (Board of Regents, The University of Texas System, priority 1995, dated 1998).
Where “and” joins values, the source holds several entries; their conditions need not be identical. Identical values can stand only once. Entries after “also recorded” stand apart in the source; their conditions may differ. Residues, ends and D or L forms follow the SMILES beside them. No end group written: not given here.

Assays:
[1] = tested on: NGF receptor on PC12 cells
Protocol: Competitive binding assay. The following method of binding assay was carried out: precoat the 24-well plates were precoated with cytochrome C and the PC12 cells plated overnight as mentioned above. The ^125 I labeled NGF was added at 5 ng/ml in the presence of different doses of peptide from 4 ug/ml to 50 ug/ml. […] These peptides are very acidic and NGF is very basic.
In another experiment 24-well plates were precoated with poly-D-Lys at 0.06 mg/ml for 15 minutes and PC12 cells plated overnight at 1×10^5 cells/well in RPMI 1640 with serum conditioned media. The ^125 I-NGF was added at, e.g., 5 ng/ml, in the presence of varying amounts of peptide from 0.01 ug/ml to 50 ug/ml in Hepes buffer with 1 mg/ml BSA. The cells were incubated at rt. for 1 hour then washed with PBS three times and lysed with 0.5N NaOH. The radioactivity was then measured. Protein concentrations of the aliquots were determined by Lowry assay.

labelled NGF = labelled NGF (Homo sapiens, UniProt P01138); test: Binding of labelled NGF to peptide fixed on a membrane disc/filter
Chain of labelled NGF (P01138 122-241): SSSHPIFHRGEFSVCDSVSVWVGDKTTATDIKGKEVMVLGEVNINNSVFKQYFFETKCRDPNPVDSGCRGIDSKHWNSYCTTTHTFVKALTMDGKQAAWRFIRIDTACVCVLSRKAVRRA
Protocol: Membrane discs were placed into wells of 96 well plate. Peptide (for example 265 ng/ul) was spotted on each disc. Series dilutions of peptide were used to assure the binding. The disc was dried at 37° C. (or 40° C.) for 1 hour. […] 4% BSA TBS was added to each well. An amount of labelled NGF was added to each well, followed by incubation in 4% BSA TBS. Each disc was washed 4 times with 200 ul TBS (5 minute interval). The discs were transferred to counting vial and counted.
Peptide P4 was attached to a solid matrix at various concentrations and the binding of labeled NGF measured to these various concentrations of bound P4. It is noted that an apparent maximal binding was achieved when about 3 μg of peptide P4 were bound. FIG. 4 illustrates how differing amounts of peptide bound differing amounts of labelled NGF. Here the peptide is fixed to a filter in varying amounts, then exposed to constant amounts of labelled NGF and washed extensively to displace unspecifically bound radioactivity. […] The specific augmentation of NGF effects may thus be understood when small amounts of peptide are added.

PC12 cells = type: cell-based, rat
Protocol: Cell Culture. Stock cultures of PC12 cells are maintained in a medium consisting of RPMI 1640 supplemented with (v/v) 5% fetal calf serum and 5% horse serum ("complete medium"). At alternate feedings, media containing 1% PSN antibiotic mixture is used, consisting of 5 mg penicillin +5 mg streptomycin +10 mg neomycin/ml. Cells are grown in a humidified atmosphere containing 5% CO2. Cells are split once weekly in a 1:12 ratio by vigorous shaking and trituration. For experiments, PC12 cells are dislodged by shaking, centrifuged at 800×g, diluted in Puck's saline, counted in a hemocytometer, and plated on poly-D-lysine coated polystyrene tissue culture pates. For experiments to be performed in defined, serum-free medium, a modification of the N1 medium of Bottenstein et al. is used consisting of RPMI 1640 supplemented with insulin 5 ug/ml, transferrin 5 ug/ml, 20 nM progesterone, 100 μM putrescine, and 30 nM sodium selenite. Cells are plated in complete medium and allowed to attach overnight before washing twice with serum-free RPMI and addition of N1 medium. For experiments. examining effects of NGF on cell survival following serum deprivation, cells are plated in complete medium and allowed to attach overnight. Cells are then washed once with RPMI containing sheep anti-mouse beta-NGF to remove any residual NGF from serum. After washing once in RPMI, cells receive varying doses of NGF in RPMI. Media is changed on the third day of serum deprivation. On the fourth day, viability is assessed by ^35 S-methionine incorporation into trichloroacetic acid precipitable proteins. The effects of NGF on the response of PC12 cells to peptides is also examined by reduction of the dye 3, (4,5-dimethylthiazol-2-yl)-2,5-diphenyl-tetrazolium (MTT). For experiments using MTT, cells (1×10^4) are plated on poly-D-lysine coated 6 mm wells (96 well plates). Cells are allowed to attach overnight before addition of NGF and/or peptide. After 24 hr, media is removed and replaced with RPMI 1640 medium without serum. Following a 24 hour recovery period, each well is incubated with MTT for 4 hours at 37° C. Formaxan crystals are then solubilized in isopropanol containing 0.04N HCl and plates read on an ELISA reader using test and reference wavelengths of 570 and 630 nm, respectively. All statistics are performed by computer-assisted methods using the Number Cruncher for Statistical Sciences (NCSS) package. […]
The survival of PC12 cells was measured as a function of the amount of peptide P4.
Cells were plated out as mentioned above in RPMI 1640 without serum but in the presence of a fixed amount of NGF with varying amounts of peptide from 0.1 to 100 ug/ml (day one). […] The incorporation of ^35 S-Met into protein was determined by TCA precipitation and protein assay.

[2] = tested on: PC12 cells transplanted into rat cortex; test: Transplant of pretreated PC12 cells into lesioned rat brain, NGF receptor immunohistochemistry (Ig192); type: in vivo; conditions: cells treated in vitro two weeks; rat cortex stab wound; two weeks after transplant
Protocol: PC12 cells were treated with nerve growth factor (NGF) or peptide P4 in vitro for two weeks. The cells were then transplanted into a rat cortex at the site of the stab wound or 6-hydroxy dopamine-induced lesion. Two weeks after the transplant of the P12 cells, the animal brain was processed for immunohistochemistry by staining with monoclonal antibody to NGF receptor (Ig192). […] The stab-wound lesions carried out by inserting a 24 gauge needle into a stereotoxicly fixed animal so as to lesion motor cortex. Cells were then deposited with the same needle into the wound cavity.
The 6-hydroxydopamine lesions were carried out by injecting […] stereotoxicly into striatum with a needle two weeks prior to transplantation and/or treatment of animals.

NGFR-II = target: T1, NGFR-II (Homo sapiens, UniProt P08138); conditions: low affinity, high capacity binding site; read-out: equilibrium dissociation constant (Kd) of NGF binding; cited from earlier work
T1 sequence (P08138 29-427): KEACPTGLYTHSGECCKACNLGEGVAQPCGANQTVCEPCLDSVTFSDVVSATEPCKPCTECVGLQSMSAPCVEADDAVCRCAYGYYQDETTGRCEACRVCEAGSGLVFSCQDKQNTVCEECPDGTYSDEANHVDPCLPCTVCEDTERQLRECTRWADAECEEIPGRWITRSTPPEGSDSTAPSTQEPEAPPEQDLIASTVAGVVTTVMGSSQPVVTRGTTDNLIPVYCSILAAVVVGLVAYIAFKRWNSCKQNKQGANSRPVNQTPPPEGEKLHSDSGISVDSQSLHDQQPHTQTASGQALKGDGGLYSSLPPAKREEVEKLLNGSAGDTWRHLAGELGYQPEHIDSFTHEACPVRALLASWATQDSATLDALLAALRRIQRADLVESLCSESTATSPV

NGFR-I = conditions: high affinity, low capacity binding site; read-out: equilibrium dissociation constant (Kd) of NGF binding; cited from earlier work

For `CC(C)[C@H](NC(=O)[C@@H](NC(=O)[C@H](CC(N)=O)NC(=O)[C@H](CCC(N)=O)NC(=O)[C@H](CCCCN)NC(=O)[C@H](CC(=O)O)NC(=O)[C@H](CCC(N)=O)NC(=O)[C@@H](N)CS)[C@@H](C)O)C(=O)N[C@@H](CS)C(=O)N[C@@H](CCC(=O)O)C(=O)N[C@@H](CCC(=O)O)C(=O)N[C@@H](CS)C(=O)N1CCC[C@H]1C(=O)N[C@@H](CCC(=O)O)C(=O)O` [P4, Cys--Gln--Asp--Lys--Gln--Asn--Thr--Val--Cys--Glu--Glu--Cys--Pro--Glu--OH] (H-CQDKQNTVCEECPE-OH; N-terminus assumed), the “binding of labeled NGF to PC12 cells (FIG. 5)” value ([1]; lower peptide concentrations measured (1.3 μg)) was “amplified”, the “displacement of bound labeled NGF from PC12 cells (FIG. 5)” value ([1]; peptide at concentrations higher than about 1.5 μg) was “effective in displacing bound labeled NGF” and the “increase in binding of 125I-NGF to its receptor” value ([1]; peptide within 0.01-0.1 ug/ml range, 125I-NGF 5 ng/ml, PC12 cells, 1 hour rt) was 50%. The “amount of bound peptide at apparent maximal binding of labeled NGF (FIG. 4)” value (labelled NGF; peptide fixed to filter, constant amount of labelled NGF) was “about 3 μg”, the “binding of labelled NGF to fixed peptide” value (labelled NGF; varying amounts of peptide on filter, washed extensively) was “saturation indicative of specific binding of NGF to peptide” and the “PC12 cell protein synthesis activity (FIG. 6B)” value (PC12 cells; NGF concentrations of 0.1 to 10 ng/ml) was “trophic effects”. For the same compound, the “peptide concentration at maximal PC12 cell survival (FIG. 3)” value (PC12 cells; in the presence of 2 ng/ml NGF) was 5 µg, the “increase in protein synthesized (35S-Met incorporation)” value (PC12 cells; peptide 0.1 ug/ml, serum-free, fixed amount of NGF, day four) was 20% and the “NGF receptor immunostaining of transplanted PC12 cells (FIG. 8B vs 8A)” value [2] was “significantly greater NGF receptor; also recorded: denser accumulation of NGF receptor sites”.
For “NGF: Nerve growth factor, a neurotrophic protein; only the β-NGF subunit has nerve growth promoting activity”, the Kd (NGFR-II) is given as ~1000 pM and 1000 pM, the “displacement of labeled NGF from PC12 cells (FIG. 1)” value ([1]; 10 micrograms unlabeled NGF or peptide, various concentrations of free labeled NGF) is given as “more effective in displacing labeled NGF than most of the synthetic peptides” and the Kd (NGFR-I) is given as ~10 pM and 10 pM.
In the case of “Tyr--Cys--Gln--Asp--Lys--Gln--Asn--Thr--Val--Cys--Glu--Glu--Cys--Pro--Glu--OH (YCQDKQNTVCEECPE-OH; cysteine pairing not given here) [P5]”, the “PC12 cell survival during serum deprivation (FIG. 6)” value (PC12 cells; in the presence of 0.5 ng/ml NGF) is reported as “enhancement of cell survival”.
